Measurements as given in ChEMBL document CHEMBL1268882, “Synthesis and biological evaluation of novel triptolide analogues for anticancer activity” (Bioorg Med Chem Lett, 2010).

Key:
PC-3 = assay: Antiproliferative activity against human PC3 cells after 72 hrs by SRB assay; format: functional, cell-based; details: PC-3, 72 h
SK-OV-3 = assay: Antiproliferative activity against human SKOV3 cells after 72 hrs by SRB assay; format: functional, cell-based; details: SK-OV-3, 72 h

Row | Structure (SMILES) | IC50 (PC-3) | IC50 (SK-OV-3)
1 | CC(C)[C@]12O[C@H]1C=C1[C@]3(O[C@H]3C[C@H]3C4=C(CC[C@]13C)C(=O)OC4)[C@@H]2O | 0.01 µM | 0.05 nM
2 | CC(C)[C@]12O[C@H]1C=C1[C@]3(O[C@H]3C[C@H]3C4=C(CC[C@]13C)C(=O)OC4)[C@H]2O | 29 µM | 500 nM
3 | CC(C)[C@]12O[C@H]1[C@H](O)[C@@]1(O)[C@@]3(C)CCC4=C(COC4=O)[C@@H]3C[C@@H]3O[C@@]31C2=O | > 100 µM | > 100000 nM
4 | CC(C)[C@]12O[C@H]1[C@@H]1O[C@@]13[C@@]1(C)CCC4=C(CNC4=O)[C@@H]1C[C@@H]1O[C@@]13C2=O | 14 µM | 20 nM
5 | CC(C)[C@@]12O[C@@H]1[C@H]1O[C@]13[C@@]1(C)CCC4=C(COC4=O)[C@H]1C[C@@H]1O[C@@]13C2=O | > 100 µM | > 100000 nM
6 | CC(C)[C@]12O[C@H]1[C@H]1O[C@]13[C@@]1(C)CCC4=C(COC4=O)[C@H]1C[C@@H]1O[C@@]13C2=O | > 100 µM | > 100000 nM
7 | CC(C)[C@]12O[C@H]1C=C1[C@]3(O[C@H]3C[C@@H]3C4=C(CC[C@]13C)C(=O)OC4)[C@@H]2O | > 100 µM | > 100000 nM
8 | CC(C)[C@]12O[C@H]1[C@H]1O[C@]13[C@@]1(C)CCC4=C(COC4=O)[C@H]1C[C@H]1O[C@@]13C2=O | > 100 µM | 4600 nM
9 | CC(C)[C@]12O[C@H]1[C@@H]1O[C@]13[C@]1(O[C@H]1C[C@H]1C4=C(CC[C@@]13C)C(=O)OC4)[C@@H]2O [TRIPTOLIDE] |  | 6 nM
10 | CC(C)[C@]12O[C@H]1[C@@H]1O[C@@]13[C@@]1(C)CCC4=C(COC4=O)[C@@H]1C[C@@H]1O[C@@]13C2=O [TRIPTONIDE] | 0.6 µM | 8 nM

The remaining lines, values ahead:

Row | IC50 (PC-3) | IC50 (SK-OV-3) | Structure (SMILES)
11 | 2.7 µM | 3 nM | CC(C)[C@]12O[C@H]1C=C1[C@]3(O[C@H]3C[C@H]3C4=C(CC[C@]13C)C(=O)OC4)C2=O
12 | 0.9 µM | 20 nM | CC(C)[C@]12O[C@H]1C=C1[C@]3(O[C@H]3C[C@H]3C4=C(CC[C@]13C)C(=O)NC4)C2=O
13 | > 100 µM | 95000 nM | CC(C)[C@@]12O[C@@H]1C=C1[C@]3(O[C@H]3C[C@@H]3C4=C(CC[C@]13C)C(=O)OC4)C2=O
14 | 29 µM | 66000 nM | CC(C)[C@]12O[C@H]1C=C1[C@]3(O[C@H]3C[C@@H]3C4=C(CC[C@]13C)C(=O)OC4)C2=O
15 | > 100 µM | 56000 nM | CC(C)[C@@]12O[C@@H]1C=C1[C@]3(O[C@@H]3C[C@@H]3C4=C(CC[C@]13C)C(=O)OC4)[C@@H]2O
